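Assay format: 96-well plates, 48-hour exposure. At the GI50, growth is halved. TGI: total growth inhibition.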
Columns and labels:
Experiment in all cases: DTP human tumour cell line panel, 48 h
COLO 205 colon = tested on: COLO 205 colon
EKVX NSCLC = tested on: EKVX NSCLC
A498 renal = tested on: A498 renal
SK-OV-3 ovarian = tested on: SK-OV-3 ovarian
A549 NSCLC = tested on: A549 NSCLC
SR leukemia = tested on: SR leukemia
SF-295 CNS = tested on: SF-295 CNS
MCF7 breast = tested on: MCF7 breast
OVCAR-5 ovarian = tested on: OVCAR-5 ovarian
BT-549 breast = tested on: BT-549 breast
MOLT-4 leukemia = tested on: MOLT-4 leukemia
OVCAR-8 ovarian = tested on: OVCAR-8 ovarian
UACC-62 melanoma = tested on: UACC-62 melanoma
K-562 leukemia = tested on: K-562 leukemia
MALME-3M melanoma = tested on: MALME-3M melanoma
PC-3 prostate = tested on: PC-3 prostate
SF-539 CNS = tested on: SF-539 CNS
HS 578T breast = tested on: HS 578T breast
NCI/ADR-RES ovarian = tested on: NCI/ADR-RES ovarian
OVCAR-4 ovarian = tested on: OVCAR-4 ovarian
TK-10 renal = tested on: TK-10 renal
HOP-62 NSCLC = tested on: HOP-62 NSCLC
SW-620 colon = tested on: SW-620 colon
HCT-116 colon = tested on: HCT-116 colon
HOP-92 NSCLC = tested on: HOP-92 NSCLC
RPMI-8226 leukemia = tested on: RPMI-8226 leukemia
RXF 393 renal = tested on: RXF 393 renal
KM12 colon = tested on: KM12 colon
HCT-15 colon = tested on: HCT-15 colon
OVCAR-3 ovarian = tested on: OVCAR-3 ovarian
SK-MEL-28 melanoma = tested on: SK-MEL-28 melanoma
SN12C renal = tested on: SN12C renal
M14 melanoma = tested on: M14 melanoma
CAKI-1 renal = tested on: CAKI-1 renal
HCC-2998 colon = tested on: HCC-2998 colon
SNB-75 CNS = tested on: SNB-75 CNS
T-47D breast = tested on: T-47D breast
CCRF-CEM leukemia = tested on: CCRF-CEM leukemia
SNB-19 CNS = tested on: SNB-19 CNS
NCI-H522 lung = tested on: NCI-H522 lung
UACC-257 melanoma = tested on: UACC-257 melanoma
IGROV1 ovarian = tested on: IGROV1 ovarian
DU-145 prostate = tested on: DU-145 prostate
LOX IMVI melanoma = tested on: LOX IMVI melanoma
ACHN renal = tested on: ACHN renal
SF-268 CNS = tested on: SF-268 CNS
NCI-H226 lung = tested on: NCI-H226 lung
MDA-MB-231 breast = tested on: MDA-MB-231 breast
U251 CNS = tested on: U251 CNS
SK-MEL-5 melanoma = tested on: SK-MEL-5 melanoma
HL-60(TB) leukemia = tested on: HL-60(TB) leukemia
SK-MEL-2 melanoma = tested on: SK-MEL-2 melanoma
MDA-MB-435 = tested on: MDA-MB-435
UO-31 renal = tested on: UO-31 renal

`CCOc1cc(/C=C/C(=O)CC(=O)/C=C/c2ccc(OC(=O)CNCCN(CC)CC)c(OCC)c2)ccc1OC(=O)CNCCN(CC)CC` was tested, and the GI50 (COLO 205 colon) was 1880 nM, the TGI (COLO 205 colon) was 4580 nM and the GI50 (EKVX NSCLC) was 1500 nM. For the same compound, the TGI (EKVX NSCLC) was 3580 nM, the GI50 (A498 renal) was 2020 nM and the TGI (A498 renal) was 3850 nM. For the same compound, the GI50 (SK-OV-3 ovarian) was 5390 nM, the TGI (SK-OV-3 ovarian) was 20800 nM and the GI50 (A549 NSCLC) was 3810 nM. The TGI (A549 NSCLC) was 15900 nM, the GI50 (SR leukemia) was 313 nM and the TGI (SR leukemia) was 1630 nM. For the same compound, the GI50 (SF-295 CNS) was 6260 nM, the TGI (SF-295 CNS) was 23400 nM and the GI50 (MCF7 breast) was 782 nM. The TGI (MCF7 breast) was 10500 nM, the GI50 (OVCAR-5 ovarian) was 2270 nM and the TGI (OVCAR-5 ovarian) was 5430 nM. For the same compound, the GI50 (BT-549 breast) was 1450 nM, the TGI (BT-549 breast) was 3520 nM and the GI50 (MOLT-4 leukemia) was 531 nM. For the same compound, the TGI (MOLT-4 leukemia) was 2720 nM, the GI50 (OVCAR-8 ovarian) was 1030 nM and the TGI (OVCAR-8 ovarian) was 12200 nM. The GI50 (UACC-62 melanoma) was 1530 nM, the TGI (UACC-62 melanoma) was 3160 nM and the GI50 (K-562 leukemia) was 1440 nM. The TGI (K-562 leukemia) was 16300 nM, the GI50 (MALME-3M melanoma) was 1910 nM and the TGI (MALME-3M melanoma) was 4120 nM. It also gave a GI50 (PC-3 prostate) of 1620 nM, a TGI (PC-3 prostate) of 10700 nM and a GI50 (SF-539 CNS) of 1380 nM. For the same compound, the TGI (SF-539 CNS) was 3100 nM, the GI50 (HS 578T breast) was 2190 nM and the TGI (HS 578T breast) was 6430 nM. The GI50 (NCI/ADR-RES ovarian) was 3460 nM, the TGI (NCI/ADR-RES ovarian) was 24100 nM and the GI50 (OVCAR-4 ovarian) was 4350 nM. It also gave a TGI (OVCAR-4 ovarian) greater than 100000 nM, a GI50 (TK-10 renal) of 2600 nM and a TGI (TK-10 renal) of 6380 nM. It also gave a GI50 (HOP-62 NSCLC) of 2500 nM, a TGI (HOP-62 NSCLC) of 6060 nM and a GI50 (SW-620 colon) of 1290 nM. The TGI (SW-620 colon) was 3410 nM, the GI50 (HCT-116 colon) was 1200 nM and the TGI (HCT-116 colon) was 2610 nM. For the same compound, the GI50 (HOP-92 NSCLC) was 1740 nM, the TGI (HOP-92 NSCLC) was 6200 nM and the GI50 (RPMI-8226 leukemia) was 450 nM. It also gave a TGI (RPMI-8226 leukemia) of 2100 nM, a GI50 (RXF 393 renal) of 681 nM and a TGI (RXF 393 renal) of 2030 nM. The GI50 (KM12 colon) was 1400 nM, the TGI (KM12 colon) was 2970 nM and the GI50 (HCT-15 colon) was 2060 nM. It also gave a TGI (HCT-15 colon) of 4660 nM, a GI50 (OVCAR-3 ovarian) of 2240 nM and a TGI (OVCAR-3 ovarian) of 6070 nM. The GI50 (SK-MEL-28 melanoma) was 1960 nM, the TGI (SK-MEL-28 melanoma) was 4560 nM and the GI50 (SN12C renal) was 2000 nM. It also gave a TGI (SN12C renal) of 6250 nM, a GI50 (M14 melanoma) of 1740 nM and a TGI (M14 melanoma) of 4230 nM. The GI50 (CAKI-1 renal) was 2120 nM, the TGI (CAKI-1 renal) was 6740 nM and the GI50 (HCC-2998 colon) was 1650 nM. It also gave a TGI (HCC-2998 colon) of 3190 nM, a GI50 (SNB-75 CNS) of 6000 nM and a TGI (SNB-75 CNS) of 62400 nM. The GI50 (T-47D breast) was 6410 nM, the TGI (T-47D breast) was 45400 nM and the GI50 (CCRF-CEM leukemia) was 394 nM. It also gave a TGI (CCRF-CEM leukemia) of 1660 nM, a GI50 (SNB-19 CNS) of 2860 nM and a TGI (SNB-19 CNS) of 14200 nM. For the same compound, the GI50 (NCI-H522 lung) was 1800 nM, the TGI (NCI-H522 lung) was 5130 nM and the GI50 (UACC-257 melanoma) was 1320 nM. For the same compound, the TGI (UACC-257 melanoma) was 3480 nM, the GI50 (IGROV1 ovarian) was 1970 nM and the TGI (IGROV1 ovarian) was 3830 nM. The GI50 (DU-145 prostate) was 1610 nM, the TGI (DU-145 prostate) was 3560 nM and the GI50 (LOX IMVI melanoma) was 1050 nM. For the same compound, the TGI (LOX IMVI melanoma) was 2440 nM, the GI50 (ACHN renal) was 1920 nM and the TGI (ACHN renal) was 3540 nM. The GI50 (SF-268 CNS) was 1980 nM, the TGI (SF-268 CNS) was 9640 nM and the GI50 (NCI-H226 lung) was 2150 nM. For the same compound, the TGI (NCI-H226 lung) was 5170 nM, the GI50 (MDA-MB-231 breast) was 2080 nM and the TGI (MDA-MB-231 breast) was 6080 nM. It also gave a GI50 (U251 CNS) of 1270 nM, a TGI (U251 CNS) of 2820 nM and a GI50 (SK-MEL-5 melanoma) of 1550 nM. For the same compound, the TGI (SK-MEL-5 melanoma) was 3170 nM, the GI50 (HL-60(TB) leukemia) was 1160 nM and the TGI (HL-60(TB) leukemia) was 4250 nM. It also gave a GI50 (SK-MEL-2 melanoma) of 1680 nM, a TGI (SK-MEL-2 melanoma) of 3260 nM and a GI50 (MDA-MB-435) of 1560 nM. The TGI (MDA-MB-435) was 6310 nM, the GI50 (UO-31 renal) was 1700 nM and the TGI (UO-31 renal) was 3820 nM.
